Test results taken from patent US12691102B2, “Composition for preventing or treating chronic kidney disease, comprising compound that induces expression of anti-aging gene klotho” (KLOTHO SCIENCES, priority 2021, dated 2026).

How the values were obtained:
[1] = tested on: promoter of the human klotho gene; assay: Luciferase expression experiment, human klotho promoter reporter (1.7 kbp or 240 bp) in RPTEC cells; format: cell-based; conditions: 5 μM, 24 hours, promoter 1.7 kbp or 240 bp, among Comparative Examples 1 to 4, FIG. 1
Procedure: (§1) In order to evaluate whether the klotho gene was expressed by the evaluation of luciferase activity, human renal proximal tubule epithelial cells (RPTECs) (ATCC CRL-4031), which are epithelial cells of the proximal tubule of the human kidneys, were purchased from Lonza, USA and used.
(§2) For culturing, a Renal Epithelial Growth Medium (REGM™) Bullet kit, also manufactured by the same Lonza company, was used, and the cells were cultured under conditions of 37° C. and 5% CO2. As a plasmid for luciferase expression, a plasmid in which the promoter site of a human KL (klotho) gene was disposed to regulate the expression of a firefly luciferase gene was used.
The plasmid was incorporated into cells using an X-treme GENE transfection reagent from Roche. The activity of luciferase expressed in cells was measured using a Dual-Luciferase reporter assay system manufactured by Promega. After the cultured cells were treated with each compound at an indicated concentration for 24 hours, the activity of luciferase was measured. It is indirectly shown that the expression of the klotho gene may be increased when the activity of luciferase is high. […]

[2] = tested on: promoter of the human klotho gene; assay: Luciferase expression experiment, reporter gene pHKP-luc (promoter up to -2.1 kb upstream of human klotho gene) in RPTECs; format: cell-based
Procedure: as §1, §2
The plasmid was incorporated into cells using an X-treme GENE transfection reagent from Roche. The activity of luciferase expressed in cells was measured using a Dual-Luciferase reporter assay system manufactured by Promega. After the cultured cells were treated with each compound at an indicated concentration for 24 hours, the activity of luciferase was measured. It is indirectly shown that the expression of the klotho gene may be increased when the activity of luciferase is high.
The results of confirming the expression of a reporter gene by treating RPTECs, which are epithelial cells of the proximal tubule of the human kidneys, with Examples 1 to 6 at concentrations of 0.5, 1 and 5 μM and Comparative Example 1 at a concentration of 5 μM and using a reporter gene (pHKP-luc) including a promoter included up to −2.1 kb upstream of the human klotho gene are illustrated in FIGS. 2 and 3.

[3] = tested on: klotho (KL) gene; assay: Quantitative evaluation of klotho (KL) gene expression level using real-time PCR in RPTEC cells; format: cell-based, human; conditions: treated for 6 hours, FIG. 4
Procedure: For RNA extraction from RPTEC cells, which are epithelial cells of the proximal tubule of the human kidneys, treated with the compounds of Comparative Example 1 and Examples 1 and 2 for 6 hours, an RNeasy kit from Qiagen Inc. was used. The results of preparing cDNA from extracted RNA using a Superscript II kit from Thermo Fisher Scientific, Inc. and performing the quantitative evaluation using Taqman Gene Expression assays from Applied Biosystems as a klotho (KL) gene-specific kit are illustrated in FIG. 4.

[4] = tested on: chronic kidney disease model; assay: Chronic kidney disease model (db/db mice, high protein diet); format: in vivo; conditions: oral gavage daily 2, 10, 50 mg/kg
Excerpt: For the chronic kidney disease model, 20 db/m mice (10 5-week-old mice, 10 6-week-old mice) and 50 db/db mice (25 5-week-old mice and 25 6-week-old mice) were imported from Jackson Lab, USA, and after the adaptation period, the experiment was started (mouse model number JAX 000642-BKS.Cg-Dock7m+/+Leprdb/j5W/M Wildtype for Dock7m, BKS.Cg-Dock7m+/+Leprdb/j 5W/M Heterozygous for Dock7m). Each group was divided into set1 and set2 due to the large number of mice, with 5-week-old mice as set2, and the experiment was conducted one week later so that all mice were in the experiment from 6 weeks of age. After measuring the body weight, the mice were evenly distributed in each group and fed a normal diet (ND) and a high protein diet (HPD). After 3 weeks on the high protein diet, 2-hour urine samples were collected via a metabolic cage for analysis. […] After 12 weeks of drug administration, mice were sacrificed, and blood and organs were obtained for hematology and tissue analysis. Urine analysis was performed at SCL healthcare center, and blood analysis was performed using I-STAT cartridge (CHEM 8+).
The animals were anesthetized with anesthetic and perfusion-fixed with fixative (Periodate-Lysine-2% paraformaldehyde) through the heart for 8 minutes. Additional fixation was performed at 4° C. for 16 hours or more in the same fixative. After undergoing a dehydration process through an alcohol series, the tissue slides were prepared by embedding in wax and then cutting to 5 μm. After the tissue was hydrated again through the hydration process, it was immersed in a citric acid solution of pH 6 and heated to retrieve the aldehyde-fixed protein. Endogenous peroxidase was then blocked by treatment with 1.7% H2O2 in methanol for 30 minutes, followed by treatment with 0.5% triton X-100 in PBS for 15 minutes to increase the penetration of the antibody. […] Using more than 100 photographs for each group, the expressed areas were quantified using a color image analyzer (TDI Scope Eye version 3.6 for windows; Olympus, Japan) (FIG. 14). […]

[5] = tested on: human kidney-2 (HK2) cells; assay: Toxicity test (EZ-Cytox) in HK2 cells; format: cell-based; conditions: 12.5 μM or 25 μM, 24 hours, FIG. 6
Procedure: Cultured human kidney-2 (HK2) cells were treated with Comparative Example 1, Example 2 and Examples 9 to 10 at a concentration of 25 μM or 12.5 μM, and after 24 hours, cytotoxicity was measured using an EZ-Cytox kit.

[6] = tested on: klotho (KL) gene; assay: Quantitative evaluation of klotho (KL) gene expression level using general PCR in RPTEC cells; format: cell-based, human; conditions: 2.5 μM, 6 hours, FIG. 5
Procedure: After RPTEC cells, which are epithelial cells of the proximal tubule of the human kidneys, were each treated with the compounds of Examples 7 to 10 at 2.5 μM for 6 hours, RNA was extracted from the cells, and cDNA was prepared from the extracted RNA using a Superscript II kit from Thermo Fisher Scientific, Inc., and then general PCR was performed.
Information on the primers used in the experiment is as follows. • KL-F […] (SEQ ID NO: 1) • KL-R […] (SEQ ID NO: 2) • GAPDH-F […] (SEQ ID NO: 3) • GAPDH-R […] (SEQ ID NO: 4)
The DNA amplified by PCR was confirmed by staining with ethidium bromide after electrophoresis on an agarose gel, and the amounts of DNA in the band were quantitatively compared using the SPEedyQuant program, and are illustrated in FIG. 5.

[7] = tested on: unilateral ureter obstruction model; assay: Unilateral ureter obstruction (UUO) model; format: in vivo; conditions: mice, 20 mg/kg/day into the abdominal cavity
Procedure: In a unilateral ureter obstruction model, 5-week-old male […] mice were used. After the right ureter was tied with a thread to create a unilateral ureter obstruction model, the KS1 compound (20 mg/kg/day) was injected into the abdominal cavity daily starting 24 hours later. After that, samples were collected by sacrificing the mice on days 7 and 14 and tested (FIG. 8A). H&E staining was performed to investigate changes in the nucleus and cytoplasm in the unilateral ureter obstruction model, and the results are illustrated in FIG. 9. […] In addition, Sirius Red staining was performed to investigate the change according to the progress of fibrosis in the unilateral ureter obstruction model. […] TUNEL staining was performed to investigate the degree of apoptosis in the unilateral ureter obstruction model.

[8] = tested on: klotho protein; assay: Klotho protein expression level in cisplatin-treated HK-2 cells; format: cell-based, human; conditions: FIG. 7B
Procedure: As in the protocol in FIG. 7A, a disease model was made by treating HK-2 cells (human renal cells) with cisplatin (20 μM), and then treated with a KS1 compound (Example 10) (3 μM). After 24 hours, the expression degree of the klotho protein was confirmed by obtaining the cells.

[9] = RPTECs, Examples at 0.5, 1 and 5 μM, Comparative Example 1 at 5 μM, FIG. 2

O=C(Nc1ccccc1Cl)c1c[nH]c2ccccc12 [Comparative Example 1, N-(2-chlorophenyl)-1H-indole-3-carboxamide]
luciferase activity (klotho promoter reporter) [1]: the highest

O=C(Nc1nc2ccccc2o1)c1ccc([N+](=O)[O-])cc1Cl [Example 1, N-(benzo[d]oxazol-2-yl)-2-chloro-4-nitrobenzamide]
expression of the reporter gene (pHKP-luc) [2, 9]: at a level similar to that of Comparative Example 1

Cc1ccc2oc(Nc3ccc(Cl)c(Cl)c3)nc2c1 [Example 2]
klotho (KL) gene mRNA expression level (real-time PCR) [3]: at a level similar to that of Comparative Example 1 | expression of the reporter gene (pHKP-luc) ([2]; RPTEC cells, 5 μM, FIG. 3): at a level similar to that of Comparative Example 1 | expression of the reporter gene (pHKP-luc) [2, 9]: at a level similar to that of Comparative Example 1

Fc1ccc(Nc2nc3ccccc3o2)cc1F [Example 10, N-(3,4-difluorophenyl)benzo[d]oxazol-2-amine]
expression of klotho protein (immunohistochemistry, kidney) ([4]; 12 weeks, FIG. 14, 15): statistically significantly (p<0.05) increased | blood urea nitrogen (BUN) ([4]; 12 weeks, FIG. 17): statistically significant (p<0.05) decrease | microalbumin level in urine (in proportion to creatinine) ([4]; FIG. 16): statistically significant (p<0.05) decrease | improvement of toxicity compared to Comparative Example 1 [5]: ≥ 20% | toxicity (cytotoxicity, EZ-Cytox) [5]: the least toxicity | expression level of the klotho (KL) gene, relative to the level of Comparative Example 1 [6]: about 10 times | renal hypertrophy (kidney size) ([7]; FIG. 8B): no difference in size | nuclear and cytoplasmic changes, tissue destruction (H&E staining) ([7]; one-week and two-week samples, FIG. 9): a large reduction in tissue destruction | klotho protein expression ([7]; one-week sample, FIG. 12): increased | fibrosis (Sirius Red staining) ([7]; vs UUO model not treated, FIG. 10): fibrosis occurred less | apoptosis (TUNEL staining) ([7]; vs UUO model not treated, FIG. 11): remarkably reduced | MMP-9 protein expression level (inflammation marker) ([7]; week 1 and week 2, FIG. 13): remarkably reduced | expression of the klotho protein ([8]; HK-2 cells, cisplatin (20 μM) disease model, then 3 μM compound, 24 hours): increased

N.N.[Cl][Pt][Cl] [cisplatin, reference compound]
expression of the klotho protein ([8]; HK-2 cells treated with cisplatin (20 μM) alone): decreased
